Counter-ions that a name gives are not always drawn. Like-named read-outs stand apart in the source and are kept apart here. Marks after values point to notes of the source that are not given here.
Tests used:
[1] = target: T1, GII ProPol (Norovirus Hu/GII.4/Sydney/NSW0514/2012/AU, UniProt K4L8Z7, E1189A); test: Steady-state kinetics of de novo polymerase activity (PicoGreen); assay type: biochemical, Human norovirus GII.4 Sydney 2012
[2] = target: T2, GII Pol (Norovirus Hu/GII.4/Sydney/NSW0514/2012/AU, UniProt K4L8Z7); test: as above; assay type: biochemical, Human norovirus GII.4 Sydney 2012; conditions: (95% CI)
Procedure: (§1) De novo polymerase activity was measured by monitoring the formation of dsRNA from a single-stranded homopolymeric RNA template using PicoGreen as described previously ([69]). Optimal pH (range of 7.0–8.0), concentrations of MnCl2 (2.5 mM), and DTT (5 mM) for HuNV were previously established ([17], [52]). Concentrations of NaCl in the final polymerase reaction were maintained below 10 mM ([17]).
(§2) Standard reactions were performed in 25 µL, containing 5 mM DTT, 2.5 mM MnCl2, 20 ng/µL RNA template, 0.5 mM NTP in 20 mM Tris pH 7.5. Reactions were initiated with the indicated concentration of enzyme and allowed to proceed for a set period at 37°C before being terminated with 10 mM EDTA. PicoGreen (1:350 dilution) (Invitrogen, Waltham, MA, USA) was added to bind the dsRNA, and fluorescence was measured on a Varioskan Flash (Thermo Fisher Scientific, Waltham, MA, USA) plate reader with excitation at 480 nm and emission at 520 nm.
(§3) Kinetics of nucleotide incorporation by polymerase proteins was analyzed by titrating NTP concentration under standard reaction conditions for the linear time period of the enzyme. Kinetics of RNA template utilization was analyzed in the same manner but with titration of the homopolymeric template. The velocity of the reaction against substrate concentration was plotted, and the kinetic parameters were determined by non-linear regression using the Michaelis-Menten model in GraphPad Prism version 9.2.0 (La Jolla, CA, USA). All enzyme kinetics was performed with three independent preparations of protein, with triplicate wells for each replicate.

[3] = target: T1, GII ProPol; test: as above; assay type: biochemical, Human norovirus GII.4 Sydney 2012; conditions: (95% CI)
Procedure: as §1, §2, §3

[4] = target: T3, GI ProPol (Southampton virus, UniProt Q04544, E1280A); test: as above; assay type: biochemical, Human norovirus GI Southampton; conditions: GI ProPol 250 nM, (95% CI)
Procedure: as §1, §2, §3

[5] = target: T4, GI Pol (Southampton virus, UniProt Q04544); test: as above; assay type: biochemical, Human norovirus GI Southampton; conditions: GI Pol 75 nM, (95% CI)
Procedure: as §1, §2, §3

[6] = tested on: GII Pro; test: FRET protease assay; assay type: biochemical, Human norovirus GII.4 Sydney 2012; conditions: normalized to 0-µM inhibitor control
Description: (§4) A fluorescent resonance energy transfer assay was used to measure the activities of Pro and ProPol as described in reference ([46]). The peptide substrate, 5(6)-carboxyfluorescein (FAM)-[…]-Dabcyl utilized in reactions, was based on the NS1-2/NS3 cleavage site of HuNV GII.4 Sydney 2012, and the scissile bond is shown in bold.

[7] = target: T1, GII ProPol; test: FRET protease assay; assay type: biochemical, Human norovirus GII.4 Sydney 2012
Description: as §4

[8] = target: T2, GII Pol; test: biochemical; conditions: for IC50: read-out: IC50 polymerase activity
[9] = target: T1, GII ProPol; test: biochemical; set-up: species or system Human norovirus GII.4 Sydney 2012
[10] = tested on: norovirus Pro; set-up: method as in PMID 32321856, PMID 38005879; conditions: read-out: IC50 protease activity; cited from earlier work
[11] = target: T4, GI Pol; test: De novo polymerase inhibition assay (PicoGreen dsRNA formation); assay type: biochemical
[12] = tested on: GII Pol; set-up: method as in PMID 24316032, PMID 31804593, PMID 30584800; conditions: read-out: IC50 polymerase; cited from earlier work
[13] = target: T3, GI ProPol; test: De novo polymerase inhibition assay (PicoGreen dsRNA formation); assay type: biochemical, Human norovirus GI Southampton
[14] = GII ProPol 1 µM, ATP 0 to 2000 µM, 80 ng/µL poly(U), (95% CI)
[15] = GTP 0 to 1,000 µM, 20 ng/µL poly(C)
[16] = 0, 3 and 30 µM, poly(C) template
[17] = GII ProPol 2 µM, poly(A) 0 to 400 ng/µL, 0.5 mM UTP, 60 min
[18] = GII Pol 35 nM, poly(C) 0 to 80 ng/µL, 0.5 mM GTP
[19] = GII ProPol 35 nM, poly(C) 0 to 80 ng/µL, 0.5 mM GTP
[20] = poly(C) 0 to 80 ng/µL, 0.5 mM GTP
[21] = GII Pol 2 µM, poly(U) 0 to 160 ng/µL, 0.5 mM ATP, 20 min

Nc1ncnc2c1ncn2[C@@H]1O[C@H](COP(=O)(O)OP(=O)(O)OP(=O)(O)O)[C@@H](O)[C@H]1O [ATP]
Km [1, 14]: 484 µM | kcat ATP [1, 14]: 0.6 (0.5–0.7) s^−1 | kcat ATP ([2]; GII Pol 2 µM, ATP 0 to 2000 µM, 80 ng/µL poly(U)): 0.3 (0.2–0.33) s^−1 | Km ([2]; GII Pol 2 µM, ATP 0 to 2000 µM, 80 ng/µL poly(U), read-out: Km ATP): 416 µM

Nc1nc2c(ncn2[C@@H]2O[C@H](COP(=O)(O)OP(=O)(O)OP(=O)(O)O)[C@@H](O)[C@H]2O)c(=O)[nH]1 [GTP]
kcat GTP ([2]; GII Pol 35 nM, GTP 0 to 500 µM, 20 ng/µL poly(C)): 1.6 (1.40–1.96) s^−1 | Km ([2]; GII Pol 35 nM, GTP 0 to 500 µM, 20 ng/µL poly(C), read-out: Km GTP): 80.3 µM | kcat GTP ([3]; GII ProPol 35 nM, GTP 0 to 500 µM, 20 ng/µL poly(C)): 0.78 (0.69–0.87) s^−1 | Km ([3]; GII ProPol 35 nM, GTP 0 to 500 µM, 20 ng/µL poly(C), read-out: Km GTP): 25.3 µM | Km [4, 15]: 91.5 µM | kcat GTP [4, 15]: 0.24 s⁻¹ | Km [5, 15]: 150 µM | kcat GTP [5, 15]: 1.7 (1.47–1.96) s^−1

Nc1ncnc2c([C@@H]3N[C@H](COP(=O)(O)OP(=O)(O)OP(=O)(O)O)[C@@H](O)[C@H]3O)c[nH]c12 [Gal-TP, galidesivir triphosphate]
protease activity in the presence of inhibitor [6]: did not affect protease activity to a level of significance | protease activity in the presence of inhibitor ([7]; 30 µM inhibitor): observable decrease in ProPol activity | protease activity in the presence of inhibitor ([7]; normalized to 0-µM inhibitor control): did not affect protease activity to a level of significance | IC50 ([8]; GII Pol 2 µM, 8 ng/µL poly(U) template, 400 µM ATP): 154 µM | IC50 [9]: 247 µM | fold difference between the IC50 values (GII ProPol vs GII Pol) ([9]; poly(U) template): 1.6 fold

O=C(Nc1cccc(C(=O)Nc2ccc(S(=O)(=O)O)c3cc(S(=O)(=O)O)cc(S(=O)(=O)O)c23)c1)Nc1cccc(C(=O)Nc2ccc(S(=O)(=O)O)c3cc(S(=O)(=O)O)cc(S(=O)(=O)O)c23)c1 [NF023, 8,8′-[carbonylbis(imino-3,1-phenylenecarbonylimino)]bis-1,3,5-naphthalene-trisulphonic acid]
protease activity in the presence of inhibitor [6]: not affected

O=C[C@H](C[C@@H]1CCNC1=O)NC(=O)[C@H](CC1CCCCC1)NC(=O)c1cc2ccccc2[nH]1 [NV-004]
IC50 [10]: 0.37 µM | polymerase activity in the presence of inhibitor [8, 16]: no decrease in polymerase activity | polymerase activity in the presence of inhibitor [11, 16]: no decrease in polymerase activity | remaining activity at 30 µM ([9]; read-out: polymerase activity compared with 0-µM control): 76%

Cc1nc(/N=N/c2cc(S(=O)(=O)O)c3cc([N+](=O)[O-])cc(S(=O)(=O)O)c3c2)c(COP(=O)(O)O)c(C=O)c1O [PPNDS, pyridoxal‐5′‐phosphate‐6‐(2′‐naphthylazo‐6′‐nitro‐4′,8′‐disulfonate) tetrasodium salt]
IC50 [12]: 0.45 to 1.5 µM | IC50 [8]: 0.5 µM | IC50 [13]: 6.8 µM | IC50 ([11]; GI Pol 75 nM, 6 ng/µL poly(C) template, 150 µM GTP): 3.4 µM | IC50 [9]: 3.8 µM

O=c1ccn([C@@H]2O[C@H](COP(=O)(O)OP(=O)(O)OP(=O)(O)O)[C@@H](O)[C@H]2O)c(=O)[nH]1 [UTP]
kcat UTP ([3]; GII ProPol 2 µM, nucleotide 0 to 2000 µM, 20 ng/µL poly(A), 60 min): 0.36 (0.32–0.41) s^−1 | Km ([3]; GII ProPol 2 µM, nucleotide 0 to 2000 µM, 20 ng/µL poly(A), 60 min, read-out: Km UTP): 438 µM

poly(A)
Km poly(A) [3, 17]: 23.6 (19.0–29.3)^a ng/μL | kcat poly(A) [3, 17]: 0.42 (0.39–0.45) s^−1

poly(C)
Km poly(C) [2, 18]: 8.8 (6.9–11.3) ng/μL | kcat poly(C) [2, 18]: 1.4 (1.3–1.5) s^−1 | Km poly(C) [3, 19]: 5.9 (4.7–7.3) ng/μL | kcat poly(C) [3, 19]: 1.1 (1.0–1.2) s^−1 | Km poly(C) ([4]; poly(C) 0 to 80 ng/µL, 0.5 mM GTP, 10 min 37°C): 15.6 (12.0–20.2)^a ng/μL | kcat poly(C) [4, 20]: 0.4 (0.35–0.42) s^−1 | Km poly(C) [5, 20]: 6.5 (5.2–8.0) ng/μL | kcat poly(C) [5, 20]: 1.4 (1.3–1.6) s^−1

poly(U)
Km as estimated by half Vmax ([1]; GII ProPol with poly(U), allosteric sigmoidal model): 6.8 ng/µL | Km poly(U) [2, 21]: 29.6 (19.7–45.0) ng/μL | kcat poly(U) [2, 21]: 1.4 (1.2–1.7) s^−1 | kcat poly(U) ([3]; GII ProPol 1 µM, poly(U) 0 to 160 ng/µL, 0.5 mM ATP, 20 min): 1.9 (1.6–2.2) s^−1 | Km poly(U) ([3]; GII ProPol 1 µM, poly(U) 0 to 160 ng/µL, 0.5 mM ATP, 20 min, Michaelis-Menten): 7.9 (4.7–13.2)^a ng/μL

Source: PMC11575396, “Activity and cryo-EM structure of the polymerase domain of the human norovirus ProPol precursor” (Journal of Virology, 2024)
